The supplement of paper PMC10307832

Legend:
Experiment in all cases: relative viability (nuclei count vs DMSO), 5 days (fraction); higher = more cells survive
BAY61-3606 + Lapatinib = compound: COC1=C(C=C(C=C1)C2=CC3=NC=CN3C(=N2)NC4=C(C=CC=N4)C(=O)N)OC [BAY61-3606] + CS(=O)(=O)CCNCc1ccc(-c2ccc3ncnc(Nc4ccc(OCc5cccc(F)c5)c(Cl)c4)c3c2)o1 [Lapatinib] (partner 2 µM)
Method in brief: (§1)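 Lung cancer cell lines, seeded in 1536-well plates, were treated the following day by pin tool with a single drug or with five library-drug doses (not always all listed) in √10 steps on top of a fixed anchor-drug dose. Cells were fixed and nuclei stained in one step after 5 days, and nuclei were counted. Relative viability is the nuclei count for treated wells divided by that for vehicle wells, reported as medians of duplicate plates.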

[1] = compound: COc1cccc2c1C(=O)c1c(O)c3c(c(O)c1C2=O)C[C@@](O)(C(=O)CO)C[C@@H]3O[C@H]1C[C@H](N)[C@H](O)[C@H](C)O1 [Doxorubicin] + CC(=O)c1c(C)c2cnc(Nc3ccc(N4CCNCC4)cn3)nc2n(C2CCCC2)c1=O [Palbociclib] (partner 0.5 µM)
Method in brief: as §1

Doxorubicin + Luminespib = compound: COc1cccc2c1C(=O)c1c(O)c3c(c(O)c1C2=O)C[C@@](O)(C(=O)CO)C[C@@H]3O[C@H]1C[C@H](N)[C@H](O)[C@H](C)O1 [Doxorubicin] + CCNC(=O)c1noc(-c2cc(C(C)C)c(O)cc2O)c1-c1ccc(CN2CCOCC2)cc1 [Luminespib] (partner 0.01 µM)
Method in brief: as §1

Doxorubicin + Phenformin = compound: COc1cccc2c1C(=O)c1c(O)c3c(c(O)c1C2=O)C[C@@](O)(C(=O)CO)C[C@@H]3O[C@H]1C[C@H](N)[C@H](O)[C@H](C)O1 [Doxorubicin] + N=C(N)NC(=N)NCCc1ccccc1 [Phenformin] (partner 250 µM)
Method in brief: as §1

Cell Line	relative viability (BAY61-3606 + Lapatinib; first compound 0.02 µM)	relative viability (BAY61-3606 + Lapatinib; first compound 0.06325 µM)	relative viability (BAY61-3606 + Lapatinib; first compound 0.2 µM)	relative viability (BAY61-3606 + Lapatinib; first compound 0.6325 µM)	relative viability (BAY61-3606 + Lapatinib; first compound 2 µM)	relative viability ([1]; first compound 0.001 µM)	relative viability ([1]; first compound 0.003162 µM)	relative viability ([1]; first compound 0.03162 µM)	relative viability ([1]; first compound 0.1 µM)	relative viability (Doxorubicin + Luminespib; first compound 0.001 µM)	relative viability (Doxorubicin + Luminespib; first compound 0.003162 µM)	relative viability (Doxorubicin + Luminespib; first compound 0.01 µM)	relative viability (Doxorubicin + Luminespib; first compound 0.03162 µM)	relative viability (Doxorubicin + Luminespib; first compound 0.1 µM)	relative viability (Doxorubicin + Phenformin; first compound 0.001 µM)	relative viability (Doxorubicin + Phenformin; first compound 0.003162 µM)	relative viability (Doxorubicin + Phenformin; first compound 0.01 µM)	relative viability (Doxorubicin + Phenformin; first compound 0.03162 µM)	relative viability (Doxorubicin + Phenformin; first compound 0.1 µM)	relative viability ([1]; first compound 0.01 µM)
NCI-H727	0.701	0.742	0.82	0.983	0.753	0.655	0.661	0.577	0.62	0.286	0.348	0.225	0.336	0.308	0.499	0.472	0.696	0.539	0.404	
NCI-H1650	0.862	0.671	0.8	0.849	0.517	0.237	0.317	0.173	0.145	0.201	0.182	0.203	0.223	0.182	0.365	0.35	0.222	0.126	0.11	0.282
NCI-H2405	1.26	0.886	1.05	1.14	1.07	0.537	0.534	0.463	0.447	0.572	0.701	0.778	0.599	0.6	0.346	0.373	0.436	0.419	0.355	0.51
LOU-NH91	0.765	0.681	0.827	0.735	0.669		0.459	0.526	0.416	0.34	0.347	0.314	0.323	0.328	0.505	0.695	0.783	0.698	0.591	0.564
EPLC-272H	1.18	0.809	0.876	0.878	0.808	0.279	0.28	0.328	0.29	0.209	0.262	0.339	0.259	0.253	0.325	0.32	0.395	0.256	0.299	0.301
NCI-H1975	0.996	0.881	0.963	0.925	0.595	0.413	0.568	0.383	0.324	0.139	0.183	0.249	0.167	0.178	0.397	0.422	0.383	0.219	0.179	0.501
NCI-H322M	0.622	0.612	0.596	0.599	0.553	0.548	0.482	0.465	0.465	0.635	0.846	0.858	0.401	0.357	0.815	0.731	0.755	0.429	0.385	0.486
NCI-H520	0.9	1.05	0.901	0.959	0.729	0.213	0.216	0.175	0.203	0.249	0.242	0.266	0.18	0.217	0.626	0.531	0.611	0.465	0.347	0.183
NCI-H358	0.435	0.378	0.477	0.378	0.288	0.129	0.141	0.0838	0.1	0.213	0.471	0.291	0.392	0.189	0.299	0.307	0.176	0.0992	0.0721	0.118
NCI-H1395	1.13	1.08	1.34	0.98	0.973	0.579	0.618	0.671	0.575	0.674	0.765	0.476	0.697	0.648	0.43	0.44	0.447	0.414	0.449	0.663
LC-2-ad	1.02	0.97	0.951	0.898	0.979	0.475	0.476	0.517	0.495	0.889	0.696	0.642	0.421	0.295	0.498	0.516	0.562	0.289	0.304	0.496
SK-MES-1	0.594	0.483	0.469	0.424	0.42	0.326	0.319	0.281	0.23	0.771	0.618	0.487	0.199	0.151	0.655	0.648	0.612	0.285	0.222	0.321
SW 1573	1.18	1.01	1.08	1.11	0.858	0.365	0.316	0.0939	0.0476	0.22	0.206	0.178	0.0908	0.0847	0.337	0.355	0.216	0.111	0.0738	0.162
CAL-12T	0.805	0.596	0.613	0.768	0.637	0.41	0.527	0.279	0.174	0.523	0.394	0.555	0.289	0.239	0.514	0.538	0.412	0.221	0.129	0.486
